Results reported in PubChem BioAssay (NCI).
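Briefly, cells in 96-well plates were exposed to five compound concentrations for 48 h, and endpoints were estimated by linear interpolation. The concentration for full growth arrest is given as TGI.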

Assays:
Assay in all cases: NCI anticancer screen, dose series, 48 h
OVCAR-5 ovarian = system: OVCAR-5 ovarian
MDA-MB-435 = system: MDA-MB-435
NCI-H460 lung = system: NCI-H460 lung
SR leukemia = system: SR leukemia
SK-MEL-5 melanoma = system: SK-MEL-5 melanoma
MCF7 breast = system: MCF7 breast
IGROV1 ovarian = system: IGROV1 ovarian
A549 NSCLC = system: A549 NSCLC
MDA-MB-231 breast = system: MDA-MB-231 breast
SW-620 colon = system: SW-620 colon
SNB-19 CNS = system: SNB-19 CNS
NCI-H226 lung = system: NCI-H226 lung
K-562 leukemia = system: K-562 leukemia
SF-295 CNS = system: SF-295 CNS
SN12C renal = system: SN12C renal
NCI-H23 lung = system: NCI-H23 lung
COLO 205 colon = system: COLO 205 colon
HCT-15 colon = system: HCT-15 colon
LOX IMVI melanoma = system: LOX IMVI melanoma
SK-OV-3 ovarian = system: SK-OV-3 ovarian
RXF 393 renal = system: RXF 393 renal
HT29 colon = system: HT29 colon
OVCAR-3 ovarian = system: OVCAR-3 ovarian
T-47D breast = system: T-47D breast
DU-145 prostate = system: DU-145 prostate
UACC-257 melanoma = system: UACC-257 melanoma
M14 melanoma = system: M14 melanoma
TK-10 renal = system: TK-10 renal
MDA-N = system: MDA-N
CAKI-1 renal = system: CAKI-1 renal
CCRF-CEM leukemia = system: CCRF-CEM leukemia
SF-268 CNS = system: SF-268 CNS
A498 renal = system: A498 renal
NCI-H522 lung = system: NCI-H522 lung
UO-31 renal = system: UO-31 renal
HL-60(TB) leukemia = system: HL-60(TB) leukemia
KM12 colon = system: KM12 colon
HS 578T breast = system: HS 578T breast
RPMI-8226 leukemia = system: RPMI-8226 leukemia
HOP-62 NSCLC = system: HOP-62 NSCLC
UACC-62 melanoma = system: UACC-62 melanoma
U251 CNS = system: U251 CNS
NCI/ADR-RES ovarian = system: NCI/ADR-RES ovarian
ACHN renal = system: ACHN renal
HCT-116 colon = system: HCT-116 colon
SF-539 CNS = system: SF-539 CNS
786-0 renal = system: 786-0 renal
SK-MEL-2 melanoma = system: SK-MEL-2 melanoma
PC-3 prostate = system: PC-3 prostate
OVCAR-8 ovarian = system: OVCAR-8 ovarian
MOLT-4 leukemia = system: MOLT-4 leukemia

Compound: COc1ccc(C2C=C(c3ccccc3)Nc3nnnn32)cc1 (stereo unspecified)
- TGI (OVCAR-5 ovarian): > 100 µM
- TGI (MDA-MB-435): > 100 µM
- TGI (NCI-H460 lung): > 100 µM
- TGI (SR leukemia): > 100 µM
- TGI (SK-MEL-5 melanoma): > 100 µM
- TGI (MCF7 breast): 84.4 µM
- TGI (IGROV1 ovarian): > 100 µM
- TGI (A549 NSCLC): > 100 µM
- TGI (MDA-MB-231 breast): 90.5 µM
- TGI (SW-620 colon): > 100 µM
- TGI (SNB-19 CNS): > 100 µM
- TGI (NCI-H226 lung): > 100 µM
- TGI (K-562 leukemia): > 100 µM
- TGI (SF-295 CNS): 88.3 µM
- TGI (SN12C renal): > 100 µM
- TGI (NCI-H23 lung): > 100 µM
- TGI (COLO 205 colon): > 100 µM
- TGI (HCT-15 colon): > 100 µM
- TGI (LOX IMVI melanoma): > 100 µM
- TGI (SK-OV-3 ovarian): 93 µM
- TGI (RXF 393 renal): 50.9 µM
- TGI (HT29 colon): 34.2 µM
- TGI (OVCAR-3 ovarian): 77.8 µM
- TGI (T-47D breast): 60.4 µM
- TGI (DU-145 prostate): > 100 µM
- TGI (UACC-257 melanoma): > 100 µM
- TGI (M14 melanoma): > 100 µM
- TGI (TK-10 renal): 29.8 µM
- TGI (MDA-N): > 100 µM
- TGI (CAKI-1 renal): > 100 µM
- TGI (CCRF-CEM leukemia): > 100 µM
- TGI (SF-268 CNS): > 100 µM
- TGI (A498 renal): > 100 µM
- TGI (NCI-H522 lung): 57.7 µM
- TGI (UO-31 renal): > 100 µM
- TGI (HL-60(TB) leukemia): > 100 µM
- TGI (KM12 colon): 34.8 µM
- TGI (HS 578T breast): > 100 µM
- TGI (RPMI-8226 leukemia): 80.2 µM
- TGI (HOP-62 NSCLC): 66.8 µM
- TGI (UACC-62 melanoma): > 100 µM
- TGI (U251 CNS): 56.1 µM
- TGI (NCI/ADR-RES ovarian): > 100 µM
- TGI (ACHN renal): 60.3 µM
- TGI (HCT-116 colon): 29.3 µM
- TGI (SF-539 CNS): 53.1 µM
- TGI (786-0 renal): 91.1 µM
- TGI (SK-MEL-2 melanoma): > 100 µM
- TGI (PC-3 prostate): > 100 µM
- TGI (OVCAR-8 ovarian): > 100 µM
- TGI (MOLT-4 leukemia): > 100 µM
